Results: patent US20220272975A1, “COMPOSITIONS AND METHODS FOR TREATING PLANT PARASITES” (Arizona Board Regents on Bealf of the University of Arizona, priority 2019, published 2022)
In brackets after ≈: the same amount, converted by molar mass. Where two headings read alike, the source gives them in different places. Marks after values point to notes of the source that are not given here.

Experiments:
[1] = test system: HFF cells (human foreskin normal cells); experiment: Human cytotoxicity (MTT) assay; type: cell-based; settings: after 72 hours; for % Inh. HFF: Conc. 200 µM
Procedure: (§1) This Example describes human cytotoxicity of individual SMs. […] Three cancer cell lines (NCI-H460 human non-small cell lung cancer, SF-268 human central nervous system glioma, and MCF-7 human breast cancer) were used that are routinely use as “sentinels” (if a compound is cytotoxic, then at least one of these are usually killed). HFF cells (human foreskin normal cells, not cancer cells) was also used as a “control”.
(§2) Tested concentrations of these SMs increased at 50, 100 uM, then at 200 uM (Table 7).

[2] = test system: MCF-7 human breast cancer; experiment: Human cytotoxicity (MTT) assay; type: cell-based; settings: for % Inh. MCF-7: after 72 hours, Conc. 200 µM
Procedure: as §1, §2

[3] = test system: SF-268 human central nervous system glioma; experiment: Human cytotoxicity (MTT) assay; type: cell-based; settings: for % Inh. SF-268: after 72 hours, Conc. 200 µM
Procedure: as §1, §2

[4] = test system: Meloidogyne incognita; experiment: In vitro nematicidal/nematistatic assay on the infective stage (J2 juveniles) of the root-knot nematode; type: in vivo; settings: for Concentration at which nematicidal activity was observed: observational data; for LC50 / EC50: Meloidogyne incognita
Procedure: (§3) Time points for observations were at 24, 48, and 72 h after initial exposure of each SM against J2 juveniles of M. incognita and T. semipenetrans under in vitro conditions.
(§4) After assessments of individual SM toxicity, the combined toxic effects of these SMs was assayed in order to understand interaction between each SM. […] In addition, the additive index values were calculated and indicated in each Table.
(§5) When analyzing the results of combination effects of the SMs, the statistical method described by DeLorenzo and Serrano (2003) was used as follows: S=(Am/Ai)+(Bm/Bi). Where: S=sum of biological activity or total toxicant unit (TTU); Am=LC50 for compound A in the mixture; Ai=LC50 for compound A in the individual effect; Bm=LC50 for compound B in the mixture; Bi=LC50 for compound B in the individual effect. S values will be used to calculate an additive index. If S≤1.0, then the additive index=(1/S)−1.0.

[5] = test system: Tylenchulus semipenetrans; experiment: In vitro nematicidal/nematistatic assay on the infective stage (J2 juveniles) of the citrus nematode; type: in vivo; settings: for Concentration at which nematicidal activity was observed: observational data; for LC50 / EC50: Tylenchulus semipenetrans
Procedure: as §3, §4, §5

[6] = test system: Caenorhabditis elegans; experiment: whole plant or invertebrate
Procedure: (§6) Laboratory assays were carried out to assess the nematicidal activity of the above-mentioned secondary metabolites (SMs) on the infective stage (i.e. the one that infects the roots of plants) of: 1) the root-knot nematode, (M. incognita); and 2) the citrus nematode (T semipenetrans). The effect of these SMs on five beneficial soil nematode species microbivores and those involved in nutrient cycling) was also tested to make sure these compounds only affect plant parasites (only for individual SM experiments).
(§7) Five non-target nematode species includes:
(§8) two free-living bacterivores: Caenorhabditis elegans and Rhabditis blumi.
(§9) The susceptibility of test population to these SMs was assessed by constructing a dosage-mortality curve in which the dosage was plotted against the percentage mortality at a given period of time (FIGS. 1-3).
(§10) Concentration-response data for each concentration of single Photorhabdus-derived SMs and the mixtures were pooled and subjected to Probit regression analysis using the Polo Plus program (LeOra software, Petaluma, Calif.). The LC or EC values, along with corresponding 95% confidence intervals, were estimated for each single SM and SM mixture at each exposure time, depending on the experimental setting. Statistically significant differences in LC or EC values among SMs at a given exposure time period within or among nematode species were interpreted based on non-overlapping of 95% confidence intervals. For the toxicity data visualization, the relationship between percent mortality or temporary quiescence and concentration was described by a sigmoidal curve, which is fitted by the logistical function, using the statistical software package Sigmaplot for Windows, version 14.0 (Systat Software Inc., San Jose, Calif., USA).

[7] = test system: Rhabditis blumi; experiment: whole plant or invertebrate
Procedure: as §6, §7, §8, §9, §10

[8] = test system: Steinernema carpocapsae; experiment: whole plant or invertebrate
Procedure: as §6, §7
(§11) three entomopathogenic species: Steinernema carpocapsae, H bacteriophora, and H sonorensis.
as §9
Concentration-response data for each concentration of single Photorhabdus-derived SMs and the mixtures were pooled and subjected to Probit regression analysis using the Polo Plus program (LeOra software, Petaluma, Calif.). The LC or EC values, along with corresponding 95% confidence intervals, were estimated for each single SM and SM mixture at each exposure time, depending on the experimental setting. […]

[9] = in vitro
Procedure: as §6, §7, §11, §9, §10

[10] = test system: NCI-H460 human non-small cell lung cancer; experiment: Human cytotoxicity (MTT) assay; type: cell-based; settings: for % Inh. NCI-H460: Conc. 200 µM
Procedure: as §1, §2

[11] = test system: H. bacteriophora; experiment: whole plant or invertebrate; settings: Heterorhabditis bacteriophora, read-out: EC50 (effective concentration causing 50% reversible nematode paralysis, temporary quiescence)
Procedure: as §6, §7, §11, §9, §10

[12] = test system: H. sonorensis; experiment: animal or person; settings: read-out: EC50 (effective concentration causing 50% reversible nematode paralysis, temporary quiescence)
Procedure: as §6, §7, §11, §9, §10

[13] = M. incognita, in vitro, 24 h exposure
[14] = read-out: LC50 (lethal concentration causing 50% nematode death), Table 5: individual compounds or compound mixtures, J2 juveniles of M. incognita, in vitro
[15] = T. semipenetrans, in vitro, 24 h exposure
[16] = read-out: LC50 (lethal concentration causing 50% nematode death), Table 6: individual compounds or compound mixtures, J2 juveniles of T. semipenetrans, in vitro

In the case of `O=C(O)/C=C/c1ccccc1` [TCA, trans-cinnamic acid], the “% Inh. HFF” value [1] is reported as 10.8%, the “% Inh. MCF-7” value [2] is reported as 2.59% and the “% Inh. SF-268” value [3] is reported as 13.0%.
With `O=C(O)CC/C=C/c1ccccc1` [PPA, (4E)-5-phenylpent-4-enoic acid] the “LC50 (lethal concentration causing 50% nematode death)” value [4, 13] was 44.4 (38.8-48.6) μg mL^−1, the “Concentration at which nematicidal activity was observed” value ([4]; M. incognita) was at least 40 µg/mL and the LC50 ([4]; read-out: LC50 (concentration required to kill 50% nematode population), M. incognita, 24 h of exposure) was 44 µg/mL. It also gave an LC50 ([4]; read-out: LC50 (lethal concentration causing 50% nematode death), M. incognita, in vitro, 24 h exposure) of 44.4 µg/mL, an LC50 [4, 14] of 44.4 µg/mL and an LC50 ([4]; J2 juveniles of M. incognita (RKN), 48 h exposure, read-out: LC50 (95% confidence interval)) of 42 µg/mL. For the same molecule, the LC50 ([4]; J2 juveniles of M. incognita (RKN), 72 h exposure, read-out: LC50 (95% confidence interval)) was 38.9 µg/mL, the “LC50 (lethal concentration causing 50% nematode death)” value [5, 15] was 66.3 (50.7-73.4) μg mL^−1 and the “Concentration at which nematicidal activity was observed” value ([5]; T. semipenetrans) was at least 40 µg/mL. The LC50 ([5]; read-out: LC50 (concentration required to kill 50% nematode population), T. semipenetrans, 24 h of exposure) was 66 µg/mL, the LC50 ([5]; read-out: LC50 (lethal concentration causing 50% nematode death), T. semipenetrans, in vitro, 24 h exposure) was 66.3 µg/mL and the LC50 [5, 16] was 66.3 µg/mL. The LC50 ([5]; J2 juveniles of T. semipenetrans (CN), 48 h exposure, read-out: LC50 (95% confidence interval)) was 59.8 µg/mL, the LC50 ([5]; J2 juveniles of T. semipenetrans (CN), 72 h exposure, read-out: LC50 (95% confidence interval)) was 42.2 µg/mL and the “LC50 (lethal concentration causing 50% nematode death)” value ([6]; C. elegans, in vitro) was 278 µg/mL (≈ 1580 µM). For the same molecule, the “LC50 (lethal concentration causing 50% nematode death)” value ([7]; R. blumi, in vitro) was 346 µg/mL (≈ 1960 µM), the “LC50 (lethal concentration causing 50% nematode death)” value ([8]; S. carpocapsae, in vitro) was >400^e μg mL^−1 and the LC50 ([9]; H. bacteriophora) was over 400 µg/mL. The LC50 ([9]; H. sonorensis, whole H. sonorensis nematodes (non-target entomopathogenic)) was over 400 µg/mL, the “% Inh. HFF” value [1] was 22.6% and the “% Inh. MCF-7” value [2] was −5.35%. The “% Inh. NCI-H460” value ([10]; MTT, after 72 hours) was 3.97% and the “% Inh. SF-268” value [3] was 7.76%.
In the case of `c1ccc2[nH]ccc2c1` [ID, indole], the “Concentration at which nematistatic activity (reversible quiescence) was induced” value ([4]; M. incognita) is reported as over 40 µg/mL, the “EC50 (effective concentration causing 50% reversible nematode paralysis, temporary quiescence)” value [4, 13] is reported as 56.3 (52.9-59.6) μg mL^−1 and the “Concentration at which nematicidal activity was observed” value ([4]; M. incognita) is reported as at least 300 µg/mL. For the same molecule, the EC50 ([4]; read-out: EC50 (concentration required to immobilize 50% of nematode population), M. incognita) was 56 µg/mL, the EC50 ([4]; read-out: EC50 (effective concentration causing 50% reversible nematode paralysis, temporary quiescence), M. incognita, in vitro, 24 h exposure) was 56.3 µg/mL and the LC50 [4, 14] was 307 µg/mL. The EC50 ([4]; J2 juveniles of M. incognita (RKN), 48 h exposure, read-out: EC50 (95% confidence interval), reversible paralysis) was 61.3 µg/mL, the EC50 ([4]; J2 juveniles of M. incognita (RKN), 72 h exposure, read-out: EC50 (95% confidence interval), reversible paralysis) was 76.3 µg/mL and the LC50 ([4]; M. incognita, ID alone and SM mixtures, exposure time not given, read-out: LC50) was 307 µg/mL. The “Concentration at which nematistatic activity (reversible quiescence) was induced” value ([5]; T. semipenetrans) was over 10 µg/mL, the “EC50 (effective concentration causing 50% reversible nematode paralysis, temporary quiescence)” value [5, 15] was 37.1 (28.7-43.4) μg mL^−1 and the “Concentration at which nematicidal activity was observed” value ([5]; T. semipenetrans) was at least 300 µg/mL. The EC50 ([5]; read-out: EC50 (concentration required to immobilize 50% of nematode population), T. semipenetrans) was 37 µg/mL, the EC50 ([5]; read-out: EC50 (effective concentration causing 50% reversible nematode paralysis, temporary quiescence), T. semipenetrans, in vitro, 24 h exposure) was 37.1 µg/mL and the LC50 [5, 16] was 388 µg/mL. For the same molecule, the EC50 ([5]; J2 juveniles of T. semipenetrans, 48 h exposure, read-out: EC50 (95% confidence interval), reversible paralysis) was 66.2 µg/mL, the EC50 ([5]; J2 juveniles of T. semipenetrans, 72 h exposure, read-out: EC50 (95% confidence interval), reversible paralysis) was 68.3 µg/mL and the LC50 ([5]; T. semipenetrans, ID alone and SM mixtures, exposure time not given, read-out: LC50) was 388 µg/mL. It also gave an EC50 ([6]; Caenorhabditis elegans, read-out: EC50 (effective concentration causing 50% reversible nematode paralysis, temporary quiescence)) of 159 µg/mL (≈ 1360 µM), an EC50 ([7]; Metarhabditis blumi, read-out: EC50 (effective concentration causing 50% reversible nematode paralysis, temporary quiescence)) of 37 µg/mL (≈ 316 µM) and an EC50 ([8]; Steinernema carpocapsae, read-out: EC50 (effective concentration causing 50% reversible nematode paralysis, temporary quiescence)) of over 400 µg/mL. The EC50 [11] was over 400 µg/mL, the EC50 [12] was over 400 µg/mL and the “% Inh. HFF” value [1] was 4.64%. For the same molecule, the “% Inh. MCF-7” value [2] was 5.31%, the “% Inh. NCI-H460” value ([10]; MTT, after 72 hours) was 30.5% and the “Toxicity against NCI-H460” value ([10]; at 200 uM) was 30.5%. The “% Inh. SF-268” value [3] was 20.2%.
`COc1cccc2c1C(=O)c1c(O)c3c(c(O)c1C2=O)C[C@@](O)(C(=O)CO)C[C@@H]3O[C@H]1C[C@H](N)[C@H](O)[C@H](C)O1` [Doxorubicin, reference compound] gave an inhibition at 1 µM ([1]; Homo sapiens, HFF, Conc. 1 μM (+ control)) of 64.9%, an inhibition at 1 µM ([2]; Homo sapiens, MCF7, after 72 hours, Conc. 1 μM (+ control), read-out: % Inh. MCF-7) of 64.1% and an inhibition at 1 µM ([10]; Homo sapiens, NCI-H460, MTT, after 72 hours, Conc. 1 μM (+ control), read-out: % Inh. NCI-H460) of 97.2%. It also gave an inhibition at 1 µM ([3]; Homo sapiens, SF-268, after 72 hours, Conc. 1 μM (+ control), read-out: % Inh. SF-268) of 86.7%.
